How the values were obtained:
Assay type in all cases: in vivo
[1] = system: Plutella xylostella; assay: Test Example 1: Mortality Test for Plutella xylostella; conditions: 144 h
Experimental: (§1) A 10% emulsifiable concentrate of the compound of the present invention (depending on the type of the compound, a 10% wettable powder was subjected to the test) was diluted with water containing a spreader to prepare a drug solution in a concentration of 10 ppm. In this drug solution, a leaf of canarium album was immersed for about 10 seconds and was air-dried and then put into a petri dish. In the petri dish, five 2 instar larvae of Plutella xylostella per petri dish were released and the petri dish was capped and stored in a thermostat room of 25° C. The number of killed larvae after 6 days was measured and the mortality was calculated from the following calculation formula: Mortality (%)=(number of killed larvae/number of released larvae)×100. Here, the test was carried out with two replications.

[2] = system: Liriomyza trifolii; assay: Test Example 13: Mortality Test for Liriomyza trifolii; conditions: 144 h, drug solution 500 ppm, kidney bean leaf with eggs immersed, after 6 days
Experimental: A 10% emulsifiable concentrate of the compound of the present invention (depending on the type of the compound, a 10% wettable powder was subjected to the test) was diluted with water containing a spreader to prepare a drug solution in a concentration of 500 ppm. In this drug solution, a leaf of kidney bean on which Liriomyza trifolii laid eggs (10 eggs/leaf) and which was cut out to a diameter of 7 cm was immersed for about 10 seconds and was air-dried and then laid on a wet filtration paper laid in a styrol cup having an inner diameter of 7 cm. The styrol cup was capped and stored in a thermostat room of 25° C. The number of killed larvae after 6 days was measured and the mortality was calculated from the same calculation formula as that in Test Example 1. Here, the test was carried out with two replications.

[3] = system: Frankliniella occidentalis; assay: Test Example 18: Mortality Test for Frankliniella occidentalis (Comparative Test 2); conditions: 48 h
Experimental: In a styrol cup having an inner diameter of 7 cm, a wet filtration paper was laid, and on the paper, a leaf of kidney bean cut out so as to have the same diameter as the inner diameter of the cup was laid, followed by inoculating ten 1 instar larvae of Frankliniella occidentalis per leaf to the leaf. 10% emulsifiable concentrates of the compound of the present invention and a comparative compound were diluted with water containing a spreader to prepare drug solutions in a predetermined concentration. The drug solutions were dusted using a rotary dusting tower in an amount of 2.5 mL per styrol cup, and the cup was capped and stored in a thermostat room of 25° C. The number of killed larvae after 2 days was measured and the mortality was calculated from the following calculation formula: Mortality (%)=(number of killed larvae/number of released larvae)×100. Here, the test was carried out with two replications.

[4] = system: Homona magnanima; assay: Test Example 3: Mortality Test for Homona magnanima; conditions: 144 h
Experimental: as §1, with “of 100” for “of 10”, “of Homona magnanima” for “of Plutella xylostella”, “the same” for “the following”, “calculation formula as that in Test Example 1.” for “calculation formula: Mortality (%)=(number of killed larvae/number of released larvae)×100.”

[5] = system: Tetranychus urticae; assay: Test Example 14: Mortality Test for Tetranychus urticae; conditions: 144 h
Experimental: In a styrol cup having an inner diameter of 7 cm, a wet filtration paper was laid, and on the paper, a leaf of kidney bean cut out so as to have the same diameter as the inner diameter of the cup was laid, followed by inoculating 10 larvae of Tetranychus urticae per leaf to the leaf. A 10% emulsifiable concentrate of the compound of the present invention (depending on the type of the compound, a 10% wettable powder was subjected to the test) was diluted with water containing a spreader to prepare a drug solution in a concentration of 500 ppm. The drug solution was dusted using a rotary dusting tower in an amount of 2.5 mL per styrol cup and the cup was capped and stored in a thermostat room of 25° C. The number of killed larvae after 6 days was measured and the mortality was calculated from the same calculation formula as that in Test Example 1. Here, the test was carried out with two replications.

[6] = system: Aulacophora femoralis; assay: Test Example 12: Mortality Test for Aulacophora femoralis; conditions: in Cucumis sativus, 144 h
Experimental: as §1, with “of 500” for “of 10”, “of cucumber” for “of canarium album”, “of Aulacophora femoralis” for “of Plutella xylostella”, “the same” for “the following”, “calculation formula as that in Test Example 1.” for “calculation formula: Mortality (%)=(number of killed larvae/number of released larvae)×100.”

[7] = system: Helicoverpa armigera; assay: Test Example 4: Mortality Test for Helicoverpa armigera; conditions: 144 h
Experimental: A 10% emulsifiable concentrate of the compound of the present invention (depending on the type of the compound, a 10% wettable powder was subjected to the test) was diluted with water containing a spreader to prepare a drug solution in a concentration of 100 ppm. In this drug solution, a leaf of canarium album was immersed for about 10 seconds and was air-dried and then put into a petri dish. In the petri dish, one 2 instar larva of Helicoverpa armigera per petri dish was released and the petri dish was capped and stored in a thermostat room of 25° C. The number of killed larvae after 6 days was measured and the mortality was calculated from the same calculation formula as that in Test Example 1. Here, the test was carried out with 2 replications.

[8] = system: Thrips palmi; assay: Test Example 6: Mortality Test for Thrips palmi; conditions: 48 h
Experimental: In a styrol cup having an inner diameter of 7 cm, a wet filtration paper was laid, and on the paper, a leaf of kidney bean cut out so as to have the same diameter as the inner diameter of the cup was laid, followed by inoculating 10 imagines of Thrips palmi per leaf to the leaf. A 10% emulsifiable concentrate of the compound of the present invention (depending on the type of the compound, a 10% wettable powder was subjected to the test) was diluted with water containing a spreader to prepare a drug solution in a concentration of 100 ppm. The drug solution was dusted using a rotary dusting tower in an amount of 2.5 mL per one styrol cup and the cup was capped and stored in a thermostat room of 25° C. The number of killed imagines after 2 days was measured and the mortality was calculated from the same calculation formula as that in Test Example 1. Here, the test was carried out with two replications.

Q: With `Cc1cc(C2=NOC(c3cc(Cl)cc(Cl)c3)(C(F)(F)F)C2)ccc1C(=O)NC1(c2ccccn2)CC1` (stereo not drawn) [No. 1-007, 4-[5-(3,5-Dichlorophenyl)-5-trifluoromethyl-4,5-dihydroisoxazole-3-yl]-2-methyl-N-[1-(2-pyridyl)cyclopropyl]benzamide] as the compound, how does the mortality at 10 ppm [1] read?
A: Its mortality at 10 ppm is at least 80%.

Q: And the mortality at 500 ppm [2]?
A: Its mortality at 500 ppm is at least 80%.

Q: And the mortality at 0.1 ppm [3]?
A: Its mortality at 0.1 ppm is 0%.

Q: What about the mortality at 0.3 ppm [3] of the same compound?
A: Its mortality at 0.3 ppm is 0%.

Q: What about the mortality at 1 ppm [3] of the same compound?
A: The mortality at 1 ppm was 38.1%.

Q: What about the mortality at 3.3 ppm [3] of the same compound?
A: Its mortality at 3.3 ppm is 96.3%.

Q: What about the mortality at 10 ppm [3] of the same compound?
A: Its mortality at 10 ppm is 100%.

Q: And the mortality at 100 ppm [4]?
A: The mortality at 100 ppm was at least 80%.

Q: And the mortality at 500 ppm [5]?
A: The mortality at 500 ppm was at least 80%.

Q: And the mortality at 500 ppm [6]?
A: Its mortality at 500 ppm is at least 80%.

Q: What about the mortality at 100 ppm [7] of the same compound?
A: Its mortality at 100 ppm is at least 80%.

Q: And the mortality at 100 ppm [8]?
A: Its mortality at 100 ppm is at least 80%.

Reference: patent publication US8119671B2, “Isoxazoline-substituted benzamide compound and pest control agent” (Nissan Chemical Industries, Ltd., priority 2007, dated 2012)
